In US10913727B2, “Modulators of the integrated stress pathway” (Calico Life Sciences LLC, priority 2016, dated 2021):

Tested on: HEK293T cells carrying the ATF4 luciferase reporter
Test: ATF4-Luc assay, in vitro model of Vanishing Cell White Matter Disease (VWMD)
Format: cell-based
Conditions: Homo sapiens, HEK-293T, 1 μg/mL tunicamycin, 7 hours, One Glo luminescence
Procedure: In order to test exemplary compounds of the invention in a cellular context, a stable VWMD cell line was first constructed. The ATF4 reporter was prepared by fusing the human full-length ATF4 5′-UTR (NCBI Accession No. BC022088.2) in front of the firefly luciferase (FLuc) coding sequence lacking the initiator methionine as described in Sidrauski et al (eLife 2013). The construct was used to produce recombinant retroviruses using standard methods and the resulting viral supernatant was used to transduce HEK293T cells, which were then subsequently selected with puromycin to generate a stable cell line.
HEK293T cells carrying the ATF4 luciferase reporter were plated on polylysine coated 384-well plates (Greiner Bio-one) at 30,000 cells per well. Cells were treated the next day with 1 μg/mL tunicamycin and 200 nM of a compound of Formula (I) for 7 hours. Luminescence was measured using One Glo (Promega) as specified by the manufacturer. Cells were maintained in DMEM with L-glutamine supplemented with 10% heat-inactivated FBS (Gibco) and Antibiotic-Antimycotic solution (Gibco).
Table 2 below summarizes the EC50 data obtained using the ATF4-Luc assay for exemplary compounds of the invention.

Compound	EC50 [nM]
CC(O)c1ccnc(C(=O)NC23CC(NC(=O)COc4ccc(Cl)c(F)c4)(C2)C3)c1 (centres unmarked) [Compound 524, N-{3-[2-(4-chloro-3-fluorophenoxy)acetamido]bicyclo[1.1.1]pentan-1-yl}-4-(1-hydroxyethyl)pyridine-2-carboxamide]	250 to 1000
Cc1cc(C(=O)NC23CC(NC(=O)COc4ccc(Cl)c(Cl)c4)(C2)C3)n(CC(C)(C)O)n1 [Compound 460, N-{3-[2-(3,4-dichlorophenoxy)acetamido]bicyclo[1.1.1]pentan-1-yl}-1-(2-hydroxy-2-methylpropyl)-3-methyl-1H-pyrazole-5-carboxamide]	> 2000
Cc1cc(C(=O)NC23CCC(NC(=O)COc4ccc(Cl)c(F)c4)(CC2)[C@@H](O)C3)n(C)n1 (single isomer, unassigned) [Compound 485]	< 50
Cc1cnc(C(=O)NC23CC(NC(=O)COc4ccc(C(F)(F)F)nc4)(C2)C3)cn1 [Compound 162, 5-methyl-N-[3-(2-{[6-(trifluoromethyl)pyridin-3-yl]oxy}acetamido)bicyclo[1.1.1]pentan-1-yl]pyrazine-2-carboxamide]	> 2000
O=C(COc1ccc(Cl)c(F)c1)NC12CC(NC(=O)c3csc(C4CC4)n3)(C1)C2 [Compound 655, N-{3-[2-(4-chloro-3-fluorophenoxy)acetamido]bicyclo[1.1.1]pentan-1-yl}-2-cyclopropyl-1,3-thiazole-4-carboxamide]	50 to 250
O=C(COc1ccc(Cl)c(F)c1)NC12CC(NC(=O)c3cc(/C=C/CO)ccn3)(C1)C2 [Compound 200, N-{3-[2-(4-chloro-3-fluorophenoxy)acetamido]bicyclo[1.1.1]pentan-1-yl}-4-[(1E)-3-hydroxyprop-1-en-1-yl]pyridine-2-carboxamide]	50 to 250
Cc1nccnc1NC12CC(NC(=O)COc3ccc(Cl)c(F)c3)(C1)C2 [Compound 678, 2-(4-chloro-3-fluorophenoxy)-N-{3-[(3-methylpyrazin-2-yl)amino]bicyclo[1.1.1]pentan-1-yl}acetamide]	1000 to 2000
O=C(COc1ccc(Cl)c(F)c1)NC12CCC(NC(=O)c3cnc(C(F)F)cn3)(CC1)[C@@H](O)C2 (single isomer, unassigned) [Compound 236]	< 50
Cc1nn(C)c(C(=O)NC23CCC(NC(=O)COc4ccc5c(c4)OC(F)(F)O5)(CC2)[C@@H](O)C3)c1F [Compound 637, N-[(3S)-4-{2-[(2,2-difluoro-2H-1,3-benzodioxol-5-yl)oxy]acetamido}-3-hydroxybicyclo[2.2.2]octan-1-yl]-4-fluoro-1,3-dimethyl-1H-pyrazole-5-carboxamide]	250 to 1000
CCc1nc(C(=O)NC23CC(NC(=O)COc4ccc(Cl)c(F)c4)(C2)C3)co1 [Compound 251, N-{3-[2-(4-chloro-3-fluorophenoxy)acetamido]bicyclo[1.1.1]pentan-1-yl}-2-ethyl-1,3-oxazole-4-carboxamide]	50 to 250
Cc1nn(C)c(C(=O)NC23CCC(NC(=O)COc4ccc(Cl)c(F)c4)(CC2)C[C@@H]3O)c1F [Compound 498, N-{(2S)-4-[2-(4-chloro-3-fluorophenoxy)acetamido]-2-hydroxybicyclo[2.2.2]octan-1-yl}-4-fluoro-1,3-dimethyl-1H-pyrazole-5-carboxamide]	< 50
CCOc1cc(C)nc(NC23CC(NC(=O)COc4ccc(Cl)c(F)c4)(C2)C3)n1 [Compound 383, 2-(4-chloro-3-fluorophenoxy)-N-{3-[(4-ethoxy-6-methylpyrimidin-2-yl)amino]bicyclo[1.1.1]pentan-1-yl}acetamide]	> 2000
O=C(COc1ccc(Cl)c(F)c1)NC12CCC(NC(=O)c3cc(N4CCOCC4)ccn3)(CC1)CC2O (centres unmarked) [Compound 935, N-{4-[2-(4-chloro-3-fluorophenoxy)acetamido]-3-hydroxybicyclo[2.2.2]octan-1-yl}-4-(morpholin-4-yl)pyridine-2-carboxamide]	> 2000
O=C(COc1ccc(Cl)c(Cl)c1)NC12CC(NC(=O)c3ccnc(CO)c3)(C1)C2 [Compound 715, N-{3-[2-(3,4-dichlorophenoxy)acetamido]bicyclo[1.1.1]pentan-1-yl}-2-(hydroxymethyl)pyridine-4-carboxamide]	1000 to 2000
O=C(COc1ccc(Cl)c(F)c1)NC12CCC(NC(=O)c3ccccc3C(=O)O)(CC1)CC2O (centres unmarked) [Compound 656, 2-({4-[2-(4-chloro-3-fluorophenoxy)acetamido]-3-hydroxybicyclo[2.2.2]octan-1-yl}carbamoyl)benzoic acid]	> 2000
COc1ncc(F)cc1C(=O)NC12CC(NC(=O)COc3ccc(Cl)c(F)c3)(C1)C2 [Compound 863, N-{3-[2-(4-chloro-3-fluorophenoxy)acetamido]bicyclo[1.1.1]pentan-1-yl}-5-fluoro-2-methoxypyridine-3-carboxamide]	> 2000

Compound	EC50 [nM]
O=C(COc1ccc(Cl)c(F)c1)NC12CC(NC(=O)c3scc4c3OCCO4)(C1)C2 [Compound 873, N-{3-[2-(4-chloro-3-fluorophenoxy)acetamido]bicyclo[1.1.1]pentan-1-yl}-2,3-dihydrothieno[3,4-b][1,4]dioxine-5-carboxamide]	> 2000
O=C(COc1ccc(Cl)c(F)c1)NC12CCC(NC(=O)c3ccc(Cl)cn3)(CC1)C[C@@H]2O [Compound 730, 5-chloro-N-{(3S)-4-[2-(4-chloro-3-fluorophenoxy)acetamido]-3-hydroxybicyclo[2.2.2]octan-1-yl}pyridine-2-carboxamide]	50 to 250
O=C(COc1ccc(Cl)c(F)c1)NC12CC(NC(=O)c3ccccc3F)(C1)C2 [Compound 507, N-{3-[2-(4-chloro-3-fluorophenoxy)acetamido]bicyclo[1.1.1]pentan-1-yl}-2-fluorobenzamide]	250 to 1000
O=C(COc1ccc(Cl)c(F)c1)NC12CCC(NC(=O)c3ccc(OC(F)(F)F)nc3)(C1)C2 [Compound 298, N-{4-[2-(4-chloro-3-fluorophenoxy)acetamido]bicyclo[2.1.1]hexan-1-yl}-6-(trifluoromethoxy)pyridine-3-carboxamide]	50 to 250
O=C(COc1ccc(Cl)c(F)c1)NC12CC(NC(=O)c3ccc(OC(F)(F)F)nc3)(C1)C2 [Compound 132, N-{3-[2-(4-chloro-3-fluorophenoxy)acetamido]bicyclo[1.1.1]pentan-1-yl}-6-(trifluoromethoxy)pyridine-3-carboxamide]	50 to 250
O=C(COc1ccc(Cl)c(F)c1)NC12CC(NC(=O)c3ccc4nsnc4c3)(C1)C2 [Compound 797, N-{3-[2-(4-chloro-3-fluorophenoxy)acetamido]bicyclo[1.1.1]pentan-1-yl}-2,1,3-benzothiadiazole-5-carboxamide]	> 2000
O=C(COc1ccc(Cl)c(F)c1)NC12CC(NC(=O)c3nc4ccccc4o3)(C1)C2 [Compound 347, N-{3-[2-(4-chloro-3-fluorophenoxy)acetamido]bicyclo[1.1.1]pentan-1-yl}-1,3-benzoxazole-2-carboxamide]	250 to 1000
O=C(COc1ccc(Cl)c(F)c1)NC12CC(NC(=O)c3csc(C(F)(F)F)n3)(C1)C2 [Compound 641, N-{3-[2-(4-chloro-3-fluorophenoxy)acetamido]bicyclo[1.1.1]pentan-1-yl}-2-(trifluoromethyl)-1,3-thiazole-4-carboxamide]	< 50
O=C(COc1ccc(Cl)c(F)c1)NC12CC(NC(=O)c3ccno3)(C1)C2 [Compound 311, N-{3-[2-(4-chloro-3-fluorophenoxy)acetamido]bicyclo[1.1.1]pentan-1-yl}-1,2-oxazole-5-carboxamide]	1000 to 2000
CCn1ccc(C(=O)NC23CC(NC(=O)COc4ccc(Cl)c(F)c4)(C2)C3)n1 [Compound 850, N-{3-[2-(4-chloro-3-fluorophenoxy)acetamido]bicyclo[1.1.1]pentan-1-yl}-1-ethyl-1H-pyrazole-3-carboxamide]	50 to 250
CC(C)c1oncc1C(=O)NC12CC(NC(=O)COc3ccc(Cl)c(F)c3)(C1)C2 [Compound 855, N-{3-[2-(4-chloro-3-fluorophenoxy)acetamido]bicyclo[1.1.1]pentan-1-yl}-5-(propan-2-yl)-1,2-oxazole-4-carboxamide]	> 2000
COc1ccc(C(=O)NC23CC(NC(=O)COc4ccc(Cl)c(F)c4)(C2)C3)cn1 [Compound 154, N-{3-[2-(4-chloro-3-fluorophenoxy)acetamido]bicyclo[1.1.1]pentan-1-yl}-6-methoxypyridine-3-carboxamide]	250 to 1000
O=C(COc1ccc(Cl)c(F)c1)NC12CCC(NC(=O)c3ccc(F)cc3)(CC1)[C@@H](O)C2 [Compound 489, N-{(2S)-4-[2-(4-chloro-3-fluorophenoxy)acetamido]-2-hydroxybicyclo[2.2.2]octan-1-yl}-4-fluorobenzamide]	50 to 250
O=C(COc1ccc(Cl)c(F)c1)NC12CCC(NC(=O)c3cnccn3)(CC1)C(O)C2 (centres unmarked) [Compound 219, N-{4-[2-(4-chloro-3-fluorophenoxy)acetamido]-2-hydroxybicyclo[2.2.2]octan-1-yl}pyrazine-2-carboxamide]	50 to 250
Cc1cc2c(NC34CC(NC(=O)COc5ccc(F)cc5)(C3)C4)nccn2n1 [Compound 639, 2-(4-fluorophenoxy)-N-{3-[(2-methylpyrazolo[1,5-a]pyrazin-4-yl)amino]bicyclo[1.1.1]pentan-1-yl}acetamide]	50 to 250
N#Cc1cccc(C(=O)NC23CCC(NC(=O)COc4ccc(Cl)c(F)c4)(CC2)CC3O)c1 (centres unmarked) [Compound 209, N-{4-[2-(4-chloro-3-fluorophenoxy)acetamido]-2-hydroxybicyclo[2.2.2]octan-1-yl}-3-cyanobenzamide]	250 to 1000
